# Where two headings read alike, the source gives them in different places.
# Tests used:
# [1] = test system: picrotoxin-induced convulsions; set-up: key: NP: no protection; settings: 1982, cited from earlier work
# [2] = test system: maximal electroshock seizure; settings: 1982, cited from earlier work
# [3] = test system: (+)bicuculline-induced seizures; set-up: key: NP: no protection; settings: 1982, cited from earlier work
# [4] = 1982, cited from earlier work
# [5] = test system: metrazol-induced convulsions; set-up: key: NP: no protection; settings: 1982, cited from earlier work
# [6] = test system: strychnine-induced convulsions; settings: 1982, cited from earlier work
# estrogen receptor = biological target: T1, estrogen receptor (Bos taurus, UniProt P49884); assay: Inhibition of 3H-estradiol binding to bovine uteral estrogen receptors; settings: read-out: % of inhibition of 3H-estradiol binding, B, competitor 10^-6 M; 0.25 nM 3H-estradiol
# T1 construct: from tissue; host or cells: bovine uterus cytosol
# T1 sequence (P49884 1-596): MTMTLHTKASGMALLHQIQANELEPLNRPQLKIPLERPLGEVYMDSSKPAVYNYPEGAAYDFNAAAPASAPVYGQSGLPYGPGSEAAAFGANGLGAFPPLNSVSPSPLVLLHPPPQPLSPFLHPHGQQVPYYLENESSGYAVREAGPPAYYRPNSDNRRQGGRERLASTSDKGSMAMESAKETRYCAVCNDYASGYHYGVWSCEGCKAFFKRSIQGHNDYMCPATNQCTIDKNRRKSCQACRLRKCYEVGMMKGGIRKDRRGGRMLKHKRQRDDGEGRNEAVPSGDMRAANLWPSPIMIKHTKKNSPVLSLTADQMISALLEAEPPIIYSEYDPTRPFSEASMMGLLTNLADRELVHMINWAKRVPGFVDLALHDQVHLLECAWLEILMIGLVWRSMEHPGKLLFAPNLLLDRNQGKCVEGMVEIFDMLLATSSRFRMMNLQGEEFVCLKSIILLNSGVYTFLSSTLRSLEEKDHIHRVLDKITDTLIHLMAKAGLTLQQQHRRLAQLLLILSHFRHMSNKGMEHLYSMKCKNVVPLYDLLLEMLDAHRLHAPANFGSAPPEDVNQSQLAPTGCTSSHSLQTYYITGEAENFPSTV
# Experimental: (§1) The hormonal activity of drugs described herein was further studied through testing their potential estrogenic, progestinic, mineralocorticoid and glucocorticoid activities. These activities were analyzed by monitoring the ability of the drugs to inhibit binding of the steroid hormones to their respective hormone receptors.
# [7] = biological target: GABA receptor-chloride ionophore complex (GR complex); assay: [35S]TBPS binding modulation assay; settings: for IC50: read-out: IC50, inhibition of [35S]-TBPS binding, +5 μM GABA, in the presence of 5 μM GABA; for Max. Inhib., maximal % of specifically bound [35S]-TBPS displaced: saturating concentrations of test compound
# [8] = test system: metrazol induced convulsions; assay: Inhibition of metrazol induced convulsions (Table 2); type: in vivo, mice; settings: Mus musculus; inhibition of metrazol induced convulsions; read-out: Anti-Metrazol ED50
# Experimental: Experiments were also performed to determine the physiological relevance of these interactions by measuring the ability of the compound of and used in the invention to modulate TBPS-induced convulsions in Swiss-Webster mice. […] The time to onset of myoclonus (presence of forelimb clonic activity) induced by TBPS was determined by observing each mouse for a period of 45 minutes. Significant differences between the time to onset in control mice vs. steroid-treated mice were determined by Student's t-test. […] The number of animals with tonic and/or clonic convulsions was recorded. In the maximal electroshock test, 50 mA of current at 60 Hz was delivered through corneal electrodes for 200 msec to induce tonic seizure. […] The ED50 (the dose at which the half-maximal effect occurs) was determined for each screen.
# Adult male CFI mice (20-30g) were used in these studies. […] Percent protection against metrazol-induced seizures was plotted against time after administration of the compound. […] Ten to twelve mice were used per dose of test drug. […] The number of animals with tonic and/or clonic convulsions was recorded. The ability of the steroid to abolish the tonic component was defined as the endpoint. Sedative potential was determined by a rotorod test where the number of mice staying on a rotating (6 rpm) rod for ≥1 min. in each of three trials was determined.
# progesterone receptor = biological target: T2, progesterone receptor (Bos taurus, UniProt F1N712); assay: Inhibition of 3H-progesterone binding to bovine uteral progesterone receptors
# T2 construct: from tissue; host or cells: bovine uterus cytosol
# T2 sequence (F1N712 1-914): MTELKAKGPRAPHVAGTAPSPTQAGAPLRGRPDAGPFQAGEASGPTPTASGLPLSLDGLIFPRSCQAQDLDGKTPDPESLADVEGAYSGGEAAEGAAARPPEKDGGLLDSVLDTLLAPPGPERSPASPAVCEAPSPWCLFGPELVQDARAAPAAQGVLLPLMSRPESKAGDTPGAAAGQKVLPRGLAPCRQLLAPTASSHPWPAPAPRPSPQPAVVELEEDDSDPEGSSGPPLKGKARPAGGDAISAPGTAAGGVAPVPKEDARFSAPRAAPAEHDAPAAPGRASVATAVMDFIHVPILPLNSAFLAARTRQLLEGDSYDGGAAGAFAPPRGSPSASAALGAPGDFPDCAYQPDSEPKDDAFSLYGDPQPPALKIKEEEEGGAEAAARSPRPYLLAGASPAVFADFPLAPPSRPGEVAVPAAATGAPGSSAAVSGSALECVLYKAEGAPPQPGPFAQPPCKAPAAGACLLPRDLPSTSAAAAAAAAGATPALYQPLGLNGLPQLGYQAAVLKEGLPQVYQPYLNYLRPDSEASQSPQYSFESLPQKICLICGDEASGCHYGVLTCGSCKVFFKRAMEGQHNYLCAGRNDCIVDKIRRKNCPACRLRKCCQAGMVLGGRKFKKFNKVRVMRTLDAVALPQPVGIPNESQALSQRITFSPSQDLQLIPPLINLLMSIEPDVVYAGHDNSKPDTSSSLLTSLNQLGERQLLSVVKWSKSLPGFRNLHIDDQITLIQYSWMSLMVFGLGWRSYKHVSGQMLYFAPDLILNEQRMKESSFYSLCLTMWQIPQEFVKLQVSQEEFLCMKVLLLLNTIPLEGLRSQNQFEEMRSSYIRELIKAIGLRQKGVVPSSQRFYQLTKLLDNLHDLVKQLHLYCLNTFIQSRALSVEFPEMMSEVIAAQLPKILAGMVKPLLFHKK
# Experimental: as §1
# For the data presented in Table 9, bovine uteri cytosol was isolated as they were for Table 7 and used for following binding to progesterone receptors by following the inhibition of ^3 H-progesterone, the natural ligand.
# open-field activity = assay: Open-field activity test; type: in vivo, mice (male N.I.H. Swiss-Webster)
# Description: (§2) The light/dark transition test (Crawley and Goodwin, 1980) is based on the observation that rodents naturally tend to explore novel environments, but open, brightly lit arenas are aversive to the rodents and inhibit exploratory behavior (Christmas and Maxwell, 1970; File, 1980). […] Similar to the light/dark transition test, the open-field test measures the antagonism between the tendency to explore a novel environment and the tendency to remain still in an aversive environment (brightly lit arena). […] The open-field test provides a simple, non-punished assessment of the potential anxiolytic properties of novel compounds. Finally, 3α-OH-DHP was tested for anxiolytic properties in a Vogel conflict paradigm. The ability of BZs to attenuate the suppression of behavior by punishment in conflict paradigms is well established (Gellar et al., 1962; Vogel et al., 1971).
# (§3) Male N.I.H. Swiss-Webster mice (Harlan) weighing 15-20 g were used in all experiments. The mice were housed 4/cage in polyethylene cages with sawdust bedding. The colony room was environmentally controlled (22° C.) with a 12 hr. light/dark cycle (0600-1800 hrs.). The mice had free access to food and water. The experiments were run from 0700-1500 hrs. and groups were counterbalanced for time of day effects.
# As a secondary measure of anxiolytic effects, naive mice were placed in the center of a large, brightly lit plexiglass box (42×42×30.5 cm) and the total distance traveled was measured during a 10 min. test period. […] The Digiscan Activity Monitor (Omnitech Electronics, Columbus, Ohio) includes 16 photobeams that surround the box. The activity monitor is linked to a computer through a Digiscan Analyzer (Omnitech Electronics) and the data is analyzed using the Integrated Lab Animal Monitoring System (Omnitech Electronics). The mice were administered drugs as described for light/dark transitions.
# (§4) 2-Hydroxypropyl β-cyclodextrin Diazepam and chlordiazepoxide are available from Sigma, Co. (St. Louis, Mo.). CGS-8216 was obtained from Ciba-Geigy (Summit, N.J.). All drugs were dissolved in 20% β-cyclodextrin in water and sonicated overnight. All drugs were administered intraperitoneally in a volume of 100 μL/20 g. CGS-8216 was administered subcutaneously in a volume of 100 μL/20 g.
# (§5) The vehicle control data were analyzed across test days using an 1-way analysis of variance (ANOVA). […] The dose-response curves were then analyzed using an 1-way ANOVA, followed by Dunnett's t-test for individual comparisons between doses and control. The open-field and habituated locomotor data were analyzed using ANOVA followed by Dunnett's t-test. […] All data is expressed as the mean±S.E.M.
# [9] = test system: number of light/dark transitions (anxiety); assay: Light/dark transition test; type: in vivo, mice (male N.I.H. Swiss-Webster); settings: 3α-OH-DHP 10, 20, 40 mg/kg; 5α-THDOC 20 mg/kg; diazepam 1.0, 5.0, 10, 20 mg/kg; 20 mg/kg
# Description: as §2, §3
# The method used was previously described by Crawley and Goodwin (1980). The apparatus included a large box (26×33×24 cm) connected to a small box (15×22×14 cm) through an opening (5×6 cm). The large box was brightly lit with a standard 100W light bulb, while the small box was kept dark. Following pretreatment with a test drug, mice were placed in the center of the large box and the number of transitions between the large and small boxes was counted for 10 min. […] During the antagonist studies, CGS-8216 was administered 30 min. prior to the test drug.
# as §4, §5
structure (smiles),measurement,setting,value
NC(=O)CCC/N=C(\c1ccc(Cl)cc1)c1cc(F)ccc1O [Progabide],ED50 PICRO (picrotoxin),"[1]; convulsant i.v., Worms et al.",105 mg/kg
same,ED50 MES (maximal electroshock),[2]; Worms et al.,75 mg/kg
same,ED50 BIC (bicuculline),"[3]; convulsant i.v., Worms et al.",30 mg/kg
same,LD50,[4]; Worms et al.,3000 mg/kg
same,ED50 MTZ (metrazol),"[5]; convulsant i.v., Worms et al.",30 mg/kg
same,ED50 STR (strychnine),"[6]; convulsant i.v., Worms et al.",75 mg/kg
CCCC(CCC)C(=O)O [Valproate],ED50 PICRO (picrotoxin),[1]; Swinyard & Woodhead,387 mg/kg
same,ED50 MES (maximal electroshock),[2]; Swinyard & Woodhead,272 mg/kg
same,ED50 BIC (bicuculline),[3]; Swinyard & Woodhead,360 mg/kg
same,LD50,[4]; Swinyard & Woodhead,1105 mg/kg
same,ED50 MTZ (metrazol),[5]; Swinyard & Woodhead,149 mg/kg
same,ED50 STR (strychnine),[6]; Swinyard & Woodhead,293 mg/kg
"C[C@]12CC[C@@H](O)C[C@H]1CC[C@@H]1[C@@H]2CC[C@]2(C)[C@@H](C(=O)CO)CC[C@@H]12 [5β-PREGNAN-3α,21-DIOL-20-ONE]",inhibition at 1 µM,estrogen receptor,4%
same,IC50,[7],100 nM
same,"Max. Inhib., maximal % of specifically bound [35S]-TBPS displaced",[7],100%
same,ED50,[8],10 mg/kg
same,inhibition at 10 µM,"progesterone receptor; read-out: % of inhibition of 3H-progesterone binding, A, competitor 10^-5 M, 0.15 nM 3H-progesterone",19%
same,inhibition at 1 µM,"progesterone receptor; read-out: % of inhibition of 3H-progesterone binding, A, competitor 10^-6 M, 0.15 nM 3H-progesterone",6%
same,inhibition at 10 µM,"progesterone receptor; read-out: % of inhibition of 3H-progesterone binding, B, competitor 10^-5 M, 0.25 nM 3H-progesterone",10%
same,inhibition at 1 µM,"progesterone receptor; read-out: % of inhibition of 3H-progesterone binding, B, competitor 10^-6 M, 0.25 nM 3H-progesterone",2%
O=C1NC(=O)C(c2ccccc2)(c2ccccc2)N1 [Phenytoin],ED50 PICRO (picrotoxin),[1]; Swinyard & Woodhead,NP
same,ED50 BIC (bicuculline),[3]; Swinyard & Woodhead,NP
same,LD50,[4]; Swinyard & Woodhead,230 mg/kg
same,ED50 MTZ (metrazol),[5]; Swinyard & Woodhead,NP
same,"Maximum protection, STR (strychnine)","[6]; at 55-100 mg/kg, Swinyard & Woodhead",50%
CCC1(c2ccccc2)C(=O)NC(=O)NC1=O [Phenobarbital],ED50 PICRO (picrotoxin),[1]; Swinyard & Woodhead,28 mg/kg
same,ED50 MES (maximal electroshock),[2]; Swinyard & Woodhead,22 mg/kg
same,ED50 BIC (bicuculline),[3]; Swinyard & Woodhead,38 mg/kg
same,LD50,[4]; Swinyard & Woodhead,265 mg/kg
same,ED50 MTZ (metrazol),[5]; Swinyard & Woodhead,13 mg/kg
same,ED50 STR (strychnine),[6]; Swinyard & Woodhead,95 mg/kg
"CC(=O)[C@H]1CC[C@H]2[C@@H]3CC[C@H]4C[C@@H](O)CC[C@]4(C)[C@H]3CC[C@]12C [Example 3β-OH-DHP, 3β-hydroxy-5α-pregnan-20-one, reference compound]","total distance, open-field","open-field activity; 20 mg/kg, 10 min, vehicle 2004.6 ± 134.6",1979.8 ± 174.5 cm
same,effect on open-field activity,"open-field activity; steroids 20 mg/kg, diazepam 10 mg/kg",did not show any effect
same,effect on number of light/dark transitions (words),[9],did not produce an anxiolytic effect
same,IC50,[7],> 100000 nM
same,"Max. Inhib., maximal % of specifically bound [35S]-TBPS displaced",[7],33%
same,"IC50, inhibition of [35S]-TBPS binding, No GABA","[7]; washed synaptoneurosomes, no GABA added",Inactive
"CC(C)(O)[C@H]1CC[C@H]2[C@@H]3CC[C@H]4C[C@H](O)CC[C@]4(C)[C@H]3CC[C@]12C [3α,20-dihydroxy-20-methyl-5α-pregnane]",inhibition at 1 µM,estrogen receptor,0%
same,IC50,[7],65 nM
same,"Max. Inhib., maximal % of specifically bound [35S]-TBPS displaced",[7],45%

# — patent publication US5232917A, “Methods, compositions, and compounds for allosteric modulation of the GABA receptor by members of the androstane and pregnane series” (priority 1991, dated 1993)
